Results on 31 compounds are retold here after ChEMBL document CHEMBL4118188, “A small diversity library of α-methyl amide analogs of sulindac for probing anticancer structure-activity relationships” (Bioorg Med Chem Lett, 2018).

SMILES strings stand for the structures. Where only a bound is given, the exact number is not on record here.

What all share (assay type): functional
One assay deals with MDA-MB-231. Briefly: Growth inhibition of human MDA-MB-231 cells measured after 96 hrs by Celltiter-Glo reagent based assay. Conditions: MDA-MB-231, 96 h.
The subject of a further assay is PC-3. The experiment in a line: Growth inhibition of human PC3 cells measured after 72 hrs by Celltiter-Glo reagent based assay. Conditions: PC-3, 72 h. (ATP-based viability assays read luminescence as a measure of living cells.)
For a further assay, the system named is HT-29. The experiment in a line: Growth inhibition of human HT-29 cells measured after 72 hrs by Celltiter-Glo reagent based assay. Conditions: HT-29, 72 h.

Broadly, the CC50 is the concentration giving 50% cytotoxicity. A higher CC50 goes with lower toxicity to the cells. Take `CSc1ccc(/C=C2/C(C)=C(C(C)C(=O)NCCCN(C)C)c3cc(F)ccc32)cc1` (stereo not drawn): the CC50 in the assay with MDA-MB-231 worked out at 6.42 µM; in the assay on PC-3 it was 7.24 µM; in the assay with HT-29, 2.58 µM.
On the same counts, the results for `CCN(CC)CCNC(=O)C(C)C1=C(C)/C(=C/c2ccc([S+](C)[O-])cc2)c2ccc(F)cc21` (stereo not drawn) are 36.6 µM, 40 µM and 11.1 µM.
The matching figures for `CSc1ccc(/C=C2/C(C)=C(C(C)C(=O)N(C)CCN(C)C)c3cc(F)ccc32)cc1` (stereo not drawn): 3.66 µM, 5.55 µM and 1.43 µM.
On the same counts, the results for `CSc1ccc(/C=C2/C(C)=C(CC(=O)NCCN(C)C)c3cc(F)ccc32)cc1` are 2.67 µM, 3.12 µM and 0.65 µM.
Consider `CCN(CC)CCN(CC)C(=O)C(C)C1=C(C)/C(=C/c2ccc(SC)cc2)c2ccc(F)cc21` (stereo not drawn), for which the results for the CC50 in the assay with MDA-MB-231, with PC-3 and with HT-29 were 5.98 µM, 6.59 µM and 2.31 µM, respectively.
The matching figures for `CC1=C(C(C)C(=O)N(C)CCN(C)C)c2cc(F)ccc2/C1=C\c1ccc([S+](C)[O-])cc1` (stereo not drawn): over 50 µM, 44.6 µM and 11.8 µM.
The matching figures for `CC1=C(C(C)C(=O)NCc2ccco2)c2cc(F)ccc2/C1=C\c1ccc([S+](C)[O-])cc1` (stereo not drawn): over 50 µM, over 50 µM and over 50 µM.
On the same counts, the results for `CC1=C(C(C)C(=O)N2CCN(CCCN(C)C)CC2)c2cc(F)ccc2/C1=C\c1ccc([S+](C)[O-])cc1` (stereo not drawn) are over 50 µM, over 50 µM and 32 µM.
Regarding `CCNCCN(CC)C(=O)C(C)C1=C(C)/C(=C/c2ccc(SC)cc2)c2ccc(F)cc21` (stereo not drawn), the CC50 with MDA-MB-231 came out at 2.51 µM; in the assay on PC-3, 3.26 µM; in the assay with HT-29, 1.3 µM.
On the same counts, the results for `CC1=C(C(C)C(=O)NCCCN(C)C)c2cc(F)ccc2/C1=C\c1ccc([S+](C)[O-])cc1` (stereo not drawn) are over 50 µM, over 50 µM and 22.5 µM.
On the same counts, the results for `CC1=C(C(C)C(=O)N2CCN(CCN(C)C)CC2)c2cc(F)ccc2/C1=C\c1ccc([S+](C)[O-])cc1` (stereo not drawn) are over 50 µM, 50 µM and 38.4 µM.
On the same counts, the results for `COC(=O)[C@H](Cc1c[nH]cn1)NC(=O)C(C)C1=C(C)/C(=C/c2ccc(SC)cc2)c2ccc(F)cc21` (stereo partly drawn) are 12.7 µM, 14.4 µM and 6.62 µM.
In the case of `CCN(CC)CCN(C)C(=O)C(C)C1=C(C)/C(=C/c2ccc(SC)cc2)c2ccc(F)cc21` (stereo not drawn), the CC50 was 6.71 µM with MDA-MB-231, 7.27 µM with PC-3 and 2.22 µM in the assay on HT-29.
The matching figures for `CC1=C(C(C)C(=O)NCCN2CCCC2)c2cc(F)ccc2/C1=C\c1ccc([S+](C)[O-])cc1` (stereo not drawn): 39.2 µM, 31.9 µM and 13.7 µM.
The matching figures for `COc1cc(/C=C2/C(C)=C(C(C)C(=O)N3CCN(CCCN(C)C)CC3)c3cc(F)ccc32)cc(OC)c1OC` (stereo not drawn): 7.34 µM, 9.61 µM and 3.69 µM.
On the same counts, the results for `CCNCCCN(CC)C(=O)C(C)C1=C(C)/C(=C/c2ccc([S+](C)[O-])cc2)c2ccc(F)cc21` (stereo not drawn) are 25.6 µM, 24.8 µM and 6.98 µM.
For the compound `COC(=O)[C@H](Cc1c[nH]cn1)NC(=O)C(C)C1=C(C)/C(=C/c2ccc([S+](C)[O-])cc2)c2ccc(F)cc21` (stereo partly drawn), the half-maximal cytotoxic concentration (CC50) in the assay with MDA-MB-231, with PC-3 and in the assay on HT-29 was over 50 µM each time.
Regarding `CC1=C(C(C)C(=O)N2CCN(c3ccncc3)CC2)c2cc(F)ccc2/C1=C\c1ccc([S+](C)[O-])cc1` (stereo not drawn), the cytotoxic concentration (CC50) in the assay on MDA-MB-231 worked out at 19.6 µM; in the assay on PC-3 it was 10.5 µM; in the assay on HT-29, 4.99 µM.
The matching figures for `CC1=C(C(C)C(=O)NCCN2CCNCC2)c2cc(F)ccc2/C1=C\c1ccc([S+](C)[O-])cc1` (stereo not drawn): over 50 µM, over 50 µM and over 50 µM.
The matching figures for `COc1cc(/C=C2/C(C)=C(C(C)C(=O)NCc3ccco3)c3cc(F)ccc32)cc(OC)c1OC` (stereo not drawn): 5.51 µM, 3.88 µM and 2.88 µM.
As to `COC(=O)[C@@H](Cc1c[nH]cn1)NC(=O)C(C)C1=C(C)/C(=C/c2ccc(SC)cc2)c2ccc(F)cc21` (stereo partly drawn), the 50% cytotoxic concentration (CC50) turned out to be 15 µM with MDA-MB-231, 16.8 µM in the assay with PC-3 and 10.7 µM in the assay on HT-29.
The matching figures for `CSc1ccc(/C=C2/C(C)=C(C(C)C(=O)NCc3ccco3)c3cc(F)ccc32)cc1` (stereo not drawn): 26.1 µM, 23.5 µM and 11.2 µM.
As to `CC1=C(C(C)C(=O)NCCN(C)C)c2cc(F)ccc2/C1=C\c1ccc([S+](C)[O-])cc1` (stereo not drawn), the CC50 was over 50 µM in the assay on MDA-MB-231, over 50 µM with PC-3 and 12.7 µM in the assay with HT-29.
On to `CCNCCN(CC)C(=O)C(C)C1=C(C)/C(=C/c2ccc([S+](C)[O-])cc2)c2ccc(F)cc21` (stereo not drawn), for which the figures for the CC50 in the assay with MDA-MB-231, in the assay on PC-3 and in the assay on HT-29 were 27.9 µM, 26.3 µM and 9.99 µM, respectively.
The matching figures for `CC1=C(C(C)C(=O)NCCN2CCCCC2)c2cc(F)ccc2/C1=C\c1ccc([S+](C)[O-])cc1` (stereo not drawn): 39.3 µM, 36.3 µM and 9.67 µM.
On the same counts, the results for `CNCCN(C)C(=O)C(C)C1=C(C)/C(=C/c2ccc([S+](C)[O-])cc2)c2ccc(F)cc21` (stereo not drawn) are over 50 µM, 27.9 µM and 10.7 µM.
As to `CC1=C(C(C)C(=O)N(C)CCN(C)C(=O)[C@@H]2CCCN2)c2cc(F)ccc2/C1=C\c1ccc([S+](C)[O-])cc1` (stereo partly drawn), the CC50 with MDA-MB-231 is over 50 µM; with PC-3 it was 27.9 µM; in the assay with HT-29, 20.1 µM.
The matching figures for `CCN(CC)CCN(CC)C(=O)C(C)C1=C(C)/C(=C/c2ccc([S+](C)[O-])cc2)c2ccc(F)cc21` (stereo not drawn): 23.5 µM, 19.7 µM and 4.45 µM.
On the same counts, the results for `CC1=C(C(C)C(=O)N2CCC[C@H]2CN2CCCC2)c2cc(F)ccc2/C1=C\c1ccc([S+](C)[O-])cc1` (stereo partly drawn) are 32 µM, 24.4 µM and 7.82 µM.
The matching figures for `CSc1ccc(/C=C2/C(C)=C(C(C)C(=O)NCCN3CCCCC3)c3cc(F)ccc32)cc1` (stereo not drawn): 5.32 µM, 5.06 µM and 2.03 µM.
Consider `CC1=C(C(C)C(=O)NCc2ccccc2)c2cc(F)ccc2/C1=C\c1ccc([S+](C)[O-])cc1` (stereo not drawn), for which the CC50 in the assay on MDA-MB-231 stood at 26 µM; in the assay on PC-3, 15.7 µM; with HT-29, 17.2 µM.
